Measured values: PMC12736535, “Generation and Characterization of Novel Contilisant+Tubastatin a Multitarget Small Molecules Against Glioblastoma” (Pharmaceutics, 2025)
Read-outs that look alike come from different tables or passages of the source.

What was measured:
[1] = test system: HDAC6; assay: Western blot of acetylated α-tubulin (HDAC6 target); type: cell-based, human; settings: GNS166 and U87 cells
Protocol: Sodium dodecyl sulfate–polyacrylamide gel electrophoresis was performed. Primary antibodies against HDAC1 (Abcam, Cambridge, UK) and HDAC6 (Cell Signaling, Dancers, MA, USA) and their main targets, acetylated H3 (Cell Signaling) and acetylated α-tubulin (Abcam), were used; acetylated lysine (Cell Signaling) and β-actin (Sigma-Aldrich) were used as endogenous controls. Secondary antibodies conjugated to horseradish peroxidase were anti-rabbit or anti-mouse (Cell Signaling). Proteins were detected using the iBright imaging system and NOVEX ECL Chemi Substrate or SuperSignal West Femto Maximum Sensitivity Substrate (ThermoFisher, Waltham, MA, USA).

[2] = test system: GNS166, GNS179, U87 and U251 cells; assay: Immunofluorescence of Ki67, p-H3 and cleaved caspase-3; type: cell-based, human; settings: 1, 3 and 5 μM, 48 h; for proliferative markers (Ki67- and p-H3-positive cells): all glioma cell types
Protocol: For immunofluorescence assays, cells were seeded at a density of 2 × 10^4 cells/well in 8-well immunofluorescence chambers (LabTek Thermo, Waltham, MA, USA) and incubated overnight. Then, cells were treated for 48 h and fixed with 4% PFA. Primary antibodies against phospho-histone H3 (p-H3) (Abcam), cleaved caspase-3 (Casp3) (R&D Systems, Minneapolis, MN, USA) and Ki67 (Abcam) and secondary antibodies Alexa Fluor anti-mouse and anti-rabbit (Invitrogen, Carlsbad, CA, USA) were used. Nuclei were stained with DAPI (Sigma-Aldrich). Pictures were taken with an Axio Observer 7 epifluorescence microscope, and Qupath version 0.6.0 was used for quantifications. Percentages of Ki67-, p-H3- and Casp3-positive cells were calculated, taking into account the number of nuclei.

[3] = test system: U87 glioblastoma cells; assay: MTT cell viability, U87; type: cell-based; settings: Homo sapiens, 72 h, read-out: IC50 U87 (GBM)
Protocol: (§1) U87-MG, U251-MG and NCI-H1299 cells were purchased from ATCC, while MKN45 was obtained from the Leibniz Institute DSMZ-German Collection of Microorganisms and Cell Cultures and the RWP1 cell line was kindly provided by Dr. Francisco Real. Cells were cultured in DMEM or RPMI (Gibco, Waltham, MA, USA) supplemented with 10% FBS, 100 U/mL penicillin and streptomycin and 2 mM L-Glutamine. Patient-derived glioma neural stem cells (GNS166 and GNS179) were kindly provided by Dr. Steve Pollard. These cells were cultured in adhesion plates treated with laminin A in DMEM/F12 media (Gibco) supplemented with N2 (Gibco), B27 (Gibco), D-(+)-Glucose solution 45% (Sigma-Aldrich, Burlington, MA, USA), basic Fibroblast Growth Factor (Gibco) and epidermal growth factor (Sigma-Aldrich). Normal human astrocytes (NHAs) were purchased from ScienCell and cultured using an astrocyte medium kit (ScienCell, San Diego, CA, USA) supplemented with FBS and Astrocyte Growth Supplement (AGS). All cells were maintained at standard conditions of 37 °C, 95% humidity, 21% O2 and 5% CO2, and cultures were regularly tested for Mycoplasma.
(§2) Cells were seeded in 96-well plates at a density of 1.5 × 10^3 or 5 × 10^3 cells/well (conventional cell lines or GNS and NHAs, respectively) and incubated overnight. Next, cells were treated with increasing concentrations of the compounds, and after 72 h, they were incubated for 3.5 h with MTT. Then, absorbance at 570 nm was measured. GraphPad Prism software version 10.4.1 was used to calculate the IC50 values.

[4] = test system: U251 glioma cells; assay: MTT cell viability, U251; type: cell-based; settings: Homo sapiens, U-251, 72 h, read-out: IC50 U251 (GBM)
Protocol: as §1
(§3) Cells were seeded in 96-well plates at a density of 1.5 × 10^3 or 5 × 10^3 cells/well (conventional cell lines or GNS and NHAs, respectively) and incubated overnight. […] Then, absorbance at 570 nm was measured. […]

[5] = test system: GNS166 patient-derived glioma stem cells; assay: MTT cell viability, GNS166; type: cell-based; settings: Homo sapiens, 72 h, read-out: IC50 GNS166 (GBM)
Protocol: as §1, §3

[6] = test system: NHA primary human astrocytes; assay: MTT cell viability, NHA; type: cell-based; settings: Astrocyte, 72 h, non-tumor cells
Protocol: as §1, §3

[7] = test system: MKN45 gastric cancer cells; assay: MTT cell viability, MKN45; type: cell-based; settings: Homo sapiens, MKN-45, 72 h
Protocol: as §1, §3

[8] = test system: RWP1 pancreatic cancer cells; assay: MTT cell viability, RWP1; type: cell-based; settings: Homo sapiens, 72 h
Protocol: as §1, §3

[9] = test system: H1299 lung cancer cells; assay: MTT cell viability, H1299; type: cell-based, human
Protocol: as §1, §2

[10] = biological target: T1, recombinant hMAO-B (Homo sapiens, UniProt P27338); assay: MAO-B inhibition assay; type: biochemical; settings: for MAO inhibition MAO-B % / inhibition at 10 µM: 10 μM
T1 sequence (P27338 1-520): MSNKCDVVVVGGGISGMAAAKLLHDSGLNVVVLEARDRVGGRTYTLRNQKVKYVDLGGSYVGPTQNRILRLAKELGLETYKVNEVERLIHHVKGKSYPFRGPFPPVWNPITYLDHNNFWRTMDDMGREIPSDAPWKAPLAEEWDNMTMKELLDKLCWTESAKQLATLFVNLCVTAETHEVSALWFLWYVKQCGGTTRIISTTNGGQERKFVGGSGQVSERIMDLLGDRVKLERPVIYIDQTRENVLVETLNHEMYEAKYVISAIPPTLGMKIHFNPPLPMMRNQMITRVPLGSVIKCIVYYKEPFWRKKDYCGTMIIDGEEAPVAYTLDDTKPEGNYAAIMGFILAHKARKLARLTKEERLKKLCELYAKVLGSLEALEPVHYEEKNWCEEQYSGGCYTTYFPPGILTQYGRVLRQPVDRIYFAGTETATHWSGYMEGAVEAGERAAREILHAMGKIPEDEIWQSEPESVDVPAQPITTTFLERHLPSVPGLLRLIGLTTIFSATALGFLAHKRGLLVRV
Protocol: […] Next, horseradish peroxidase (200 U/mL), Ampliflu Red (20 mM) and tyramine hydrochloride (100 mM) (Sigma-Aldrich) were added, and absorbance was measured at 570 nm every 5 min for 30 min. The percentage of inhibition was calculated from the absorbance values.

[11] = biological target: AChE (Homo sapiens, UniProt P22303); assay: AChE inhibition, Ellman's colorimetric method; type: biochemical; settings: read-out: ChE inhibition AChE %
Protocol: (§4) The inhibitory capacity of the compounds on ChEs was assessed using Ellman’s colorimetric method. Briefly, an inhibitor solution containing 10 µM of the MSMs and 0.3 mM DTNB was incubated for 20 min with the enzyme solution ([…]) at 37 °C. […] Inhibition percentages were calculated from these values. […] Further, enzyme kinetics were studied using different substrate and inhibitor concentrations. Results were represented in a Lineweaver–Burk plot using GraphPad Prism, and the constant of inhibition (Ki) was estimated from the point at which the line cuts the x-axis in the secondary plot.

[12] = biological target: T2, BChE (Homo sapiens, UniProt P06276); assay: BChE inhibition, Ellman's colorimetric method; type: biochemical; settings: for inhibition at 10 µM: read-out: ChE inhibition BChE %
Protocol: as §4

[13] = test system: GNS166 cells; assay: RNA-seq; type: cell-based, human; settings: 5 µM
Description: For transcriptomic analysis, total RNA was extracted and samples were sent to BGI Tech Solutions. […] Genes presenting a fold-change value ≥4 or ≤−4 and an FDR-adjusted p-value < 0.01 were defined as differentially expressed and used to perform downstream enrichment studies.

[14] = In vivo toxicity, body weight; design: species or system athymic nude-Foxn1nu mice; settings: intraperitoneal, 3 days per week
[15] = test system: U87 subcutaneous tumors; assay: Subcutaneous U87 tumor growth and tumor immunohistochemistry; type: in vivo, athymic nude-Foxn1nu mice; settings: 50 mg/kg i.p.; for final tumor volume: 3 days per week for 4 weeks, control ~750; for decrease in the number of Ki67-positive cells (IHC): resected tumors
Protocol: For carcinogenesis studies, subcutaneous tumor growth experiments were performed via the injection of 5 × 10^5 cells into two bottom flanks of athymic nude-Foxn1^nu mice. Once tumors reached a size of 25–50 mm^3, mice were sorted into different treatment groups based on their gender and tumor size. An external caliper was used for tumor size measurement, and the tumor volume was estimated using the formula V = L·W^2·0.5 (where L is tumor length and W is tumor width). […] Sample size was calculated, taking into account that control groups could have an average size of 700 mm^3 and we wanted to detect a difference of […]. For the cytotoxic experiment, 8 controls and 8 treated animals were used, while for the efficacy experiment 12 control animals and 8 treated animals were used.
Subcutaneous tumors were extracted, fixed with 4% formaldehyde for 48 h and embedded in paraffin. Tumor sections were obtained and stainings for Ki67 (Ab16667, Abcam), acetyl H3 (9649, Cell Signaling) and acetylated α-tubulin (ab179484, Abcam) were performed. A ZEISS Axioscan 7 slide scanner was used to capture images of the stainings, and analyses were performed using Qupath.

[16] = biological target: T2, BChE; assay: BChE inhibition, Ellman's colorimetric method; type: biochemical; settings: read-out: ChE inhibition BChE %
[17] = biological target: T3, recombinant hMAO-A (Homo sapiens, UniProt P21397); assay: MAO-A inhibition assay; type: biochemical
T3 sequence (P21397 1-527): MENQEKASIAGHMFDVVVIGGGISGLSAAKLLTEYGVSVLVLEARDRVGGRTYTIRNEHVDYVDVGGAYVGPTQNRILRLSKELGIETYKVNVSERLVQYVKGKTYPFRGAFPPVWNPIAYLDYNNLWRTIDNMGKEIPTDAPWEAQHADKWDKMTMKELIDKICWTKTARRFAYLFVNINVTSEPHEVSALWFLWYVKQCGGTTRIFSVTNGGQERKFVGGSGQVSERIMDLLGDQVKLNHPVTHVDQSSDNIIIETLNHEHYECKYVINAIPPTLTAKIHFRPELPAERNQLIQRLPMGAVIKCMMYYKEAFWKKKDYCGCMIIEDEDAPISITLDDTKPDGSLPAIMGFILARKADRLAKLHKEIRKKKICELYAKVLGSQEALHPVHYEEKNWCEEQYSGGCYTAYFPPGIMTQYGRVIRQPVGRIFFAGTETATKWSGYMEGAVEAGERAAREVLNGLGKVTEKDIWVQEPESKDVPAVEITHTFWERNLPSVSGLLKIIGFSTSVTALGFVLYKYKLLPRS
Protocol: For MAO inhibition studies, the enzyme solution (0.5 U/mL recombinant hMAO-A or 1.5 U/mL recombinant hMAO-B) was incubated with an inhibitor solution containing 10 µM of the compounds for 30 min at 37 °C. Next, horseradish peroxidase (200 U/mL), Ampliflu Red (20 mM) and tyramine hydrochloride (100 mM) (Sigma-Aldrich) were added, and absorbance was measured at 570 nm every 5 min for 30 min. The percentage of inhibition was calculated from the absorbance values.

[18] = increasing concentrations of inhibitor
[19] = read-out: MAO inhibition MAO-A %

T2 sequence (P06276 29-602, species assumed): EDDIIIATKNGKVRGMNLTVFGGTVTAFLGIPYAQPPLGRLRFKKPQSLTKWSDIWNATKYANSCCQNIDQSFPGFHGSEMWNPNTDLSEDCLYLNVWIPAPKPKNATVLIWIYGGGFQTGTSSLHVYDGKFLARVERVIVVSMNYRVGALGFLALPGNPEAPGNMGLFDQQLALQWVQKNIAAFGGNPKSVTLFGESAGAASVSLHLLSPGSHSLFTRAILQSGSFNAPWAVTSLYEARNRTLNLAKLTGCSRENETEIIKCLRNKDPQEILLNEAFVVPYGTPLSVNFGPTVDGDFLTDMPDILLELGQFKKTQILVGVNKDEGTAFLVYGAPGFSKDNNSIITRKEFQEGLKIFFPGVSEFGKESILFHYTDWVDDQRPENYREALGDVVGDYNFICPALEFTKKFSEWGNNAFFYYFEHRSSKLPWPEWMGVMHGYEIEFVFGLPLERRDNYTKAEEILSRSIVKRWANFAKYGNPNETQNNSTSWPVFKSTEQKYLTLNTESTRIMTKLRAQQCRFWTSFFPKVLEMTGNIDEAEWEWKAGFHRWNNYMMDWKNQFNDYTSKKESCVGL
Sequence of AChE (P22303 32-614): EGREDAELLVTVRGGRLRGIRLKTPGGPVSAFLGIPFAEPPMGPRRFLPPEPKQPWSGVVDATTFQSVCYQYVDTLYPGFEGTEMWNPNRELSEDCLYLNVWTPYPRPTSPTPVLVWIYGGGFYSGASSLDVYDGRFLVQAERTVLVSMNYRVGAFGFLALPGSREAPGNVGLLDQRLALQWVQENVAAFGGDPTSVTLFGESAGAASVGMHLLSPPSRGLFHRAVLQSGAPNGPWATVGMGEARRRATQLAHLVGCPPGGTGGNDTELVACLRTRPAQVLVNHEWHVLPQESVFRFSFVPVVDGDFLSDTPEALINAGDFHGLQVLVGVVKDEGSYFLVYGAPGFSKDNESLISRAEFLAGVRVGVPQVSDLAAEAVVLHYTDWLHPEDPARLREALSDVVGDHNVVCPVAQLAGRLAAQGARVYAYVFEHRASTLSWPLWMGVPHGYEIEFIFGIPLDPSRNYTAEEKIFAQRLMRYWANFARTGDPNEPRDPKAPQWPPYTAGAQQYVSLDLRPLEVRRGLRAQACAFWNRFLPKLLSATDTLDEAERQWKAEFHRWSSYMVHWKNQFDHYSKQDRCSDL

CN1CCc2c(c3ccccc3n2Cc2ccc(C(=O)NO)cc2)C1 [Tubastatin A]
levels of acetyl-α-tubulin [1]: higher levels of acetylated α-tubulin than the FRBs | cleaved caspase-3-positive cells [2]: slightly increased

CCCNNC(=O)c1ccc(S(=O)(=O)n2ccc3cc(OCCCN4CCCCC4)ccc32)cc1 [FRB44]
IC50 [3]: ~1.5 µM | IC50 [4]: 3.1 µM | IC50 [5]: 15 µM | IC50 [6]: 41.4 µM | IC50 [7]: 4.1 µM | IC50 [8]: 0.7 µM | IC50 ([9]; Homo sapiens, NCI-H1299, 72 h): 11 µM | inhibition at 1 µM [10]: 18% | MAO inhibition MAO-B % [10]: 70% | inhibition at 10 µM [10]: 69% | IC50 [10, 18]: 3.16 µM | inhibition at 10 µM [11]: 24% | Type of inhibition [12]: Mixed | ChE inhibition BChE % ([12]; 10 μM): 70% | inhibition at 10 µM ([12]; 10 μM): 71% | Type of inhibition ([12]; BChE, Lineweaver-Burk plot): mixed inhibition | Ki ([12]; BChE, secondary plot of Lineweaver-Burk slopes): 1.36 µM | IC50 [12, 18]: 8.24 µM | levels of acetyl-α-tubulin [1]: increased | proliferative markers (Ki67- and p-H3-positive cells) [2]: clear reductions | FC of CDKN1A (RNA-seq) [13]: 3.53 fold | FC of MKI67 (RNA-seq) [13]: 0.09 fold | body weight vs control animals [14]: no statistically significant differences | final tumor weight, lower compared to controls [15]: 62.5% | final tumor volume [15]: ~ 325 mm^3 | decrease in the number of Ki67-positive cells (IHC) [15]: around 30% | inhibition at 1 µM ([16]; 1 μM): 20%

C#CCN1CCN(CCCOc2ccc3c(ccn3S(=O)(=O)c3ccc(C(=O)NNCCC)cc3)c2)CC1 [FRB56]
IC50 [3]: ~1.5 µM | IC50 [4]: 12 µM | IC50 [5]: 13.7 µM | IC50 [6]: 26.6 µM | IC50 ([9]; 72 h): < 5 µM | IC50 ([9]; Homo sapiens, NCI-H1299, 72 h): 4.9 µM | IC50 [17, 18]: 1.68 µM | inhibition at 1 µM [10]: 83% | MAO inhibition MAO-B % [10]: 90% | inhibition at 10 µM [10]: 89% | inhibition at 10 µM [11]: 13% | inhibition at 10 µM ([12]; 10 μM): 15% | levels of acetyl-α-tubulin [1]: increased | proliferative markers (Ki67- and p-H3-positive cells) [2]: clear reductions | FC of CDKN1A (RNA-seq) [13]: 3.12 fold | FC of MKI67 (RNA-seq) [13]: 0.06 fold | body weight vs control animals [14]: no statistically significant differences | final tumor weight, lower compared to controls [15]: 61.4% | final tumor volume [15]: ~ 280 mm^3 | decrease in the number of Ki67-positive cells (IHC) [15]: around 30% | inhibition at 1 µM ([16]; 1 μM): 10%

CCCNNC(=O)c1ccc(S(=O)(=O)n2ccc3cc(OC)ccc32)cc1 [FRB24]
IC50 [3]: 7.1 µM

CCN(C)C(=O)Oc1cccc([C@H](C)N(C)C)c1 [Rivastigmine, reference compound]
inhibition at 10 µM [12]: 100% | inhibition at 1 µM [16]: 100%

C#CCN(C)CCCOc1ccc(Cl)cc1Cl [Clorgiline, reference compound]
inhibition at 1 µM [17, 19]: 100% | inhibition at 10 µM [17, 19]: 98%

CCCN(CCC)NC(=O)c1ccc(S(=O)(=O)n2ccc3cc(OC)ccc32)cc1 [FRB21]
IC50 [3]: > 100 µM
